From US8628961B2, “Small molecule antagonists of phosphatidylinositol-3,4,5-triphosphate (PIP3) and uses thereof” (Tufts University, priority 2010, dated 2014)

Key:
Akt PH domain [1] = molecular target: T1, Akt PH domain (Homo sapiens (Human), UniProt P31749); test: Fluorescence polarization (FP) PIP3/Akt PH domain binding assay; conditions: for IC50: 15 nM TMR-conjugated PIP3, PITs 6.25-200 μM, 30 min
Text: (§1) In order to identify compounds that disrupt the interaction between PIP3 and PH domains, a high-throughput fluorescence polarization (FP)-binding assay was developed using recombinant 1-123 amino acid N-terminal fragment of human Akt1 (also referred to herein simply as Akt), encompassing the PH domain (PH123 protein), and fluorescent […] PIP3 molecule. The amino acid sequence of human Akt1 is publicly available as, for example, GenBank Accession No. NP_001014432.1 (SEQ ID NO:1), and the corresponding DNA sequence is publicly available as, for example, GenBank Accession No. NM_001014432. Briefly, 5 μM recombinant GST fusion proteins containing 1-123 a.a. N-terminal fragment of human Akt1 (PH 123) or 100 nM 441-551 a.a. region of human PDK1 were incubated with 15 nM TMR-labeled PIP3, PIP2, or PIP5 in buffer containing 50 mM Tris-HCl (pH 7.5), 150 mM NaCl, and 5 mM b-ME for 15 min at room temperature in the dark. FP values were determined using Wallac Victor 3 plate reader. For the primary screen, 50,000 diverse small molecules from Harvard Institute of Chemistry and Cell Biology were screened (iccb.med.harvard.edu). Incubations were carried out for 1 hr. For secondary assays, PIT compounds were added at various concentrations (6.25, 12.5, 25, 50, 100, 150 and 200 μM), followed by a 30 min incubation. The inhibition rates were calculated as inhibition rate=[1−(compound-treated group/control group)]×100%, and IC50 value was determined using Origin6 software (MicroCal, LLC, Northampton, Mass.).
Target sequence in this assay (P31749 1-123): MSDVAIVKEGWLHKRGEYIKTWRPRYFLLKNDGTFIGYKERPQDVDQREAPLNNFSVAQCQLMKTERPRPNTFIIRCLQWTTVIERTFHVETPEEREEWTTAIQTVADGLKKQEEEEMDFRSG

U87MG cells [2] = test: cells; format: cell-based; conditions: for IC50: Homo sapiens, U-87 MG, U87MG cells, 48 hr, ATP assay, read-out: Cell Viability IC50
Experimental: Based on the critical role of PIP3-dependent […] signaling in the regulation of cell survival, the effect of PIT-1 on the cancer cell viability was tested. Cancer cells were seeded into 96-well plates (white plates for ATP assay; black plates for fluorescent assay; clear plates for MTS assay) at the density of 5-10×10^3 cells per well in 100 μl of the appropriate media. Compounds were added at a series of concentrations and incubated for different times. For the ATP assay, a luminescence-based commercial kit (CellTiter-Glo, Promega, Madison, Wis.) was used. Thirty microliters of cell lysis/ATP detection reagent was added to each well, mixed for 10 min at room temperature, and the luminescence was measured using a Wallac Victor 3 plate reader (Perkin-Elmer, Wellesley, Mass.). For the MTS assay, a CellTiter 96 AQueous Non-Radioactive Cell Proliferation Assay Kit (Promega, Madison, Wis., USA) was used. Twenty microliters of the combined MTS/PMS solution was added into each well, incubated for 4 hr at 37° C., and the absorbance at 490 nm was measured using a Wallac Victor 3 plate reader. For the Sytox cell death assay, measuring loss of plasma membrane integrity, cells were incubated with 1 μM Sytox Green reagent (Molecular Probes, Eugene, Oreg.) for 30 min at 37° C. and the fluorescence intensity was measured using Wallac Victor 3 plate reader with excitation at 485 nm and emission at 545 nm. Next, 5 μl of 20% (v/v) Triton X-100 solution was added to each well and incubated for 1 hr at 37° C., and the signal was measured again. The ratio of values (percentage of dead cells in each well) before and after Triton X-100 treatment was calculated and normalized to the relevant controls not subjected to the cytotoxic stimuli. IC50 values were determined using Origin6 software (MicroCal, LLC, Northampton, Mass.).
To measure induction of cell death by PIT-1 derivatives, U87MG cells were incubated with PITs (1.56-300 μM) for 48 hr. Cell viability was determined using ATP assay.

PDK1 PH domain = PDK1 PH domain (Homo sapiens (Human), UniProt O15530); test: FP PIP3/PDK1 PH domain binding assay; conditions: 15 nM TMR-conjugated PIP3, 100 nM PDK1 PH domain, 30 min
Chain of PDK1 PH domain (O15530 441-551): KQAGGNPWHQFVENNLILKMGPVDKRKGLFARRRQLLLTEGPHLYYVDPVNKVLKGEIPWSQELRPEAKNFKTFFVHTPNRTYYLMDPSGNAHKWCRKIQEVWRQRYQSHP
Text: as §1

GRP1 PH domain = GRP1 PH domain (Homo sapiens, UniProt O43739); test: FP PIP3/GRP1 PH domain binding assay; conditions: 15 nM TMR-conjugated PIP3, 100 nM GRP1 PH domain, 30 min
4T1 breast tumor = test: Syngeneic 4T1 breast cancer growth in BALB/c mice; format: in vivo
Experimental: The effect of intravenous (i.v.) administration of both unencapsulated DM-PIT-1 in PBS and DM-PIT-1-M on the syngeneic 4T1 breast cancer growth in BALB/c mice was examined. 4T1 metastatic breast cancer cells were first cultured in vitro in DMEM medium containing 10% FBS and antibiotics. After re-suspension in PBS, the 4T1 cancer cells (8×10^4) were injected s.c. into axillary regions of BALB/c mice. The treatment with PIT-1 began on day 11 after inoculation of tumor cells, i.e., when tumors were palpable, but before tumors are precisely measurable (˜50 mm^3). Working solutions of all PIT-1-formulations were made in sterile 0.9% NaCl before injection into mice. […] If the tumor size reached approx. 1000 mm^3, the mice were euthanized using carbon dioxide (CO2) prior to cervical dislocation. Seven mice per group were used. The tumor volume (V) was measured every two days by microcaliper for 8 days. Tumor volume was calculated according to the formula (α×b^2)/2, where α is the longest and b is the shortest diameter of tumor, respectively. Tumor tissues were fixed in phosphate-buffered formalin, embedded in paraffin, cut in 4 μm thickness, and applied to slides. The slides were deparaffinized in xylenes using three changes for 5 min each, and hydrated gradually through graded alcohols: 100% ethanol twice for 10 min each, 95% ethanol twice for 10 min each, and then deionized water for 1 min with stirring. For antigen unmasking, slides were placed in a container, covered with 10 mM sodium citrate buffer, pH 6.0, and heated in a convection steamer for 1 hr. The slides were washed in deionized water three times for 2 min each, blocked with 5% normal goat blocking serum for 30 min, incubated with goat anti-CD31 primary antibody for 1 hr, and incubated with an Alexa Fluor 488-conjugated secondary antibody for 30 min. The slides were analyzed and photographed using a fluorescent microscope. TUNEL staining was performed using FragEL kit according to manufacturer's instructions (Calbiochem).

[3] = Solubility (aqueous, cell media); format: physicochemical; conditions: 300 μM unencapsulated
Text: The size of the DM-PIT-1-loaded micelles was about 15 nm with a narrow size distribution.

Akt PH domain [4] = molecular target: T1, Akt PH domain; test: PH domain translocation assay (GFP fusion, plasma membrane); format: cell-based; conditions: PDGF stimulation
Experimental: Cells were transfected with the corresponding GFP-fusion vectors, serum starved overnight, and incubated with 100 μM PITs or PIT-1 is for 2 hr, followed by stimulation with 100 ng/ml PDGF or 250 ng/ml PMA for 5 min. The translocation was analyzed using fluorescent microscope and was quantitated by counting the number of cells with translocated PH domains in five random fields.
To begin characterizing cellular activity of PITs, a PH domain translocation assay was performed, measuring PIP3-induced association of GFP-fused PH domains with the plasma membrane. […] Varnai P et al. (1999) J Biol Chem 274:10983-9. Several PH-domain-containing proteins, which are known to bind PIP3 specifically and efficiently, were examined. […] Oikawa T et al. (2004) Nat Cell Biol 6:420-6.
Target sequence in this assay (P31749 5-108): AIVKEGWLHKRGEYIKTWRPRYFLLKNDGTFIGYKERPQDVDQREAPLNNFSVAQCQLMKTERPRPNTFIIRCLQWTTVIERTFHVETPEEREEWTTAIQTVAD

U87MG cells [5] = test: Combination with Akt kinase inhibitors in U87MG cells (western blot, ATP assay); format: cell-based, human
Experimental: U87MG cells were treated with 100 μM PIT-1, or 10 μM Akt inhibitor VIII (Calbiochem) or Akt inhibitor (Calbiochem), or 100 μM PIT-1 together with 10 μM Akt inhibitor VIII or Akt inhibitor, for 12 hr and then phosphorylation events were evaluated by western blot.

PI3K-PDK1-Akt pathway = test: PIP3-regulated phosphorylation events in U87MG cells; format: cell-based, human
Experimental: The effect of PIT-1 on PIP3-mediated signaling was examined in U87MG glioblastoma cells, which show elevated basal levels of PIP3 due to the loss of PTEN. Pore N et al. (2003) Cancer Res 63:236-41.

U87MG cells [6] = test: Sensitization of U87MG cells to TRAIL, ATP assay; format: cell-based, human
Experimental: FIG. 10 is a bar graph depicting that PITs, as well as Akt inhibitor VIII, sensitize U87MG cells to killing by TRAIL. U87MG cells were incubated with 50 μM PIT-1, PIT-2, PIT-1i-1 or 10 μM Akt inhibitor VIII in the presence or absence of 10 ng/ml TRAIL for 48 hr, followed by cell viability analysis using ATP assay.
Upregulation of PI3K/Akt signaling is an important mechanism of chemoresistance of cancer cells. Blume-Jensen P et al. (2001) Nature 411:355-65; Osaki M et al. (2004) Apoptosis 9:667-76. […] Puduvalli V K et al. (2005) Apoptosis 10:233-43 TRAIL represents a particularly promising anti-cancer agent due to its intrinsic selectivity towards cancer cells which is associated with the expression of the decoy receptors by many (but not all) normal cells. Abe K et al. (2000) Ann NY Acad Sci 926:52-63. […] Oka N et al. (2005) Cancer Res 65:7546-53.

| Molecule | Akt potency and selectivity compared to PIT-1 (Akt PH domain [1]) | IC50 (Akt PH domain [1]) [µM] | IC50 (U87MG cells [2]) [µM] | IC50 (PDK1 PH domain) [µM] | IC50 (GRP1 PH domain) [µM] | melting point [°C] | further results |
| --- | --- | --- | --- | --- | --- | --- | --- |
| Cc1cc(C)cc(C(=O)NC(=S)Nc2c(O)cc(C)c(Cl)c2C)c1 [PIT-3, N-(3-Chloro-6-hydroxy-2,4-dimethylphenylcarbamothioyl)-3,5-dimethylbenzamide] | improved Akt potency and selectivity compared to PIT-1 | 17.5 ± 1.6 | 12.4 ± 0.9 | 107 ± 3.9 | > 200 | 185 to 186 |  |
| Cc1cc(C)cc(C(=O)NC(=S)Nc2c(O)cc(C(F)(F)F)cc2C(F)(F)F)c1 [PIT-5, N-(2-Hydroxy-4,6-bis(trifluoromethyl)phenylcarbamothioyl)-3,5-dimethylbenzamide] | improved Akt potency and selectivity compared to PIT-1 | 20.8 ± 2.5 | 18.8 ± 1.7 | > 200 | > 200 | 167 to 168 |  |
| Cc1cc(C)cc(C(=O)NC(=S)Nc2c(O)cc(C)c(Br)c2C)c1 [PIT-6, N-(3-Bromo-6-hydroxy-2,4-dimethylphenylcarbamothioyl)-3,5-dimethylbenzamide] | improved Akt potency and selectivity compared to PIT-1 | 18.1 ± 3.1 | 12.6 ± 2.1 | > 200 | > 200 | 164.5 to 166 |  |
| Cc1cc(C)cc(C(=O)NC(=S)Nc2cc([N+](=O)[O-])ccc2O)c1 [DM-PIT-1] |  | 27.1 ± 3.2 | 33.9 ± 2.2 | 80.5 ± 3.1 | 35.5 ± 3.8 |  | reduction of tumor volume compared to control (4T1 breast tumor; day 8, 0.4 mg/kg/day i.v.): 58.1%; tumor volume (4T1 breast tumor; day 8, 0.4 mg/kg/day i.v.): 380±52.3 mm^3; tumor growth compared to control (4T1 breast tumor; i.v. daily 8 days, DM-PIT-1 0.4 mg/kg, DM-PIT-1-M 1 mg/kg, P<0.01): significantly attenuated tumor growth; tumor angiogenesis, CD31 loci (4T1 breast tumor; mouse, in vivo): marked decrease in cancer angiogenesis; precipitation in cell media [3]: significant precipitation; activity compared to PIT-1 (U87MG cells [2]; cell death in U87MG cells, cell migration, PI3K-PDK1-Akt signaling): increased activity in these assays compared to PIT-1 |
| CCN(CC)CCCCN1c2ccccc2Oc2ccc(Cl)cc21 [Akt inhibitor X] |  |  |  |  |  |  | plasma membrane translocation of Akt PH domain (Akt PH domain [4]): Neither Akt inhibitor X nor allosteric inhibitor VIII blocked membrane translocation; combination of Akt inhibitors VIII and X (U87MG cells [5]): no additive effect |
| Cc1cc(C)cc(C(=O)NC(=S)Nc2cc(-c3ccccc3)ccc2O)c1 [PIT-7, N-(4-Hydroxybiphenyl-3-ylcarbamothioyl)-3,5-dimethylbenzamide] |  | 13.4 ± 2.1 | 6.6 ± 0.3 | 52.3 ± 2.3 | > 200 |  | cytotoxicity / reduction of cancer cell viability relative to other PITs (U87MG cells [2]): strongest activity; PI3K-PDK1-Akt signaling in U87MG cells (PI3K-PDK1-Akt pathway): strongest activity |
| Cc1cc(C)cc(C(=O)NC(=S)Nc2cc(C(F)(F)F)ccc2O)c1 [PIT-4, N-(2-Hydroxy-5-(trifluoromethyl)phenylcarbamothioyl)-3,5-dimethylbenzamide] | improved Akt potency and selectivity compared to PIT-1 | 22.6 ± 3 | 20.7 ± 3.3 | > 200 | > 200 | 208 to 209 |  |
| TRAIL: Tumor necrosis factor (TNF)-related apoptosis-inducing ligand, 281 amino acid member of the TNF family of cytokines (protein, UniProt P50591 1-281, looked up) Tumor necrosis factor ligand …: MAMMEVQGGPSLGQTCVLIVIFTVLLQSLCVAVTYVYFTNELKQMQDKYSKSGIACFLKEDDSYWDPNDEESMNSPCWQVKWQLRQLVRKMILRTSEETISTVQEKQQNISPLVRERGPQRVAAHITGTRGRSNTLSSPNSKNEKALGRKINSWESSRSGHSFLSNLHLRNGELVIHEKGFYYIYSQTYFRFQEEIKENTKNDKQMVQYIYKYTSYPDPILLMKSARNSCWSKDAEYGLYSIYQGGIFELKENDRIFVSVTNEHLIDMDHEASFFGAFLVG |  |  |  |  |  |  | sensitivity of U87MG cells to TRAIL alone (U87MG cells [6]): entirely resistant |
